# Numbers after ± are expanded uncertainties.
# Conditions: Liquid, Falling or rolling sphere viscometry
SMILES,"viscosity (313.15 K, 10000 kPa)","viscosity (313.15 K, 15000 kPa)","viscosity (313.15 K, 25000 kPa)","viscosity (313.15 K, 50000 kPa)","viscosity (313.15 K, 75000 kPa)","viscosity (313.15 K, 100000 kPa)","viscosity (313.15 K, 125000 kPa)","viscosity (313.15 K, 150000 kPa)","viscosity (343.15 K, 10000 kPa)","viscosity (343.15 K, 15000 kPa)","viscosity (343.15 K, 25000 kPa)","viscosity (343.15 K, 50000 kPa)","viscosity (343.15 K, 75000 kPa)","viscosity (343.15 K, 100000 kPa)","viscosity (343.15 K, 125000 kPa)","viscosity (343.15 K, 150000 kPa)","viscosity (363.15 K, 10000 kPa)","viscosity (363.15 K, 15000 kPa)","viscosity (363.15 K, 25000 kPa)","viscosity (363.15 K, 50000 kPa)",other results
COCC[N+]1(C)CCCC1.O=S(=O)([N-]S(=O)(=O)C(F)(F)F)C(F)(F)F,33.3 ± 3.4 mPa·s,35.3 ± 3.6 mPa·s,39.5 ± 4 mPa·s,52 ± 5.3 mPa·s,67.5 ± 6.9 mPa·s,86.9 ± 9 mPa·s,111.2 ± 12 mPa·s,141.5 ± 15 mPa·s,14.8 ± 1.6 mPa·s,15.5 ± 1.6 mPa·s,17 ± 1.8 mPa·s,21.2 ± 2.3 mPa·s,26.2 ± 2.8 mPa·s,32.3 ± 3.5 mPa·s,39.6 ± 4.4 mPa·s,48.5 ± 5.4 mPa·s,10.2 ± 1.1 mPa·s,10.7 ± 1.1 mPa·s,11.6 ± 1.2 mPa·s,14.3 ± 1.5 mPa·s,"viscosity (363.15 K, 75000 kPa): 17.5 ± 1.8 mPa·s; viscosity (363.15 K, 100000 kPa): 21.2 ± 2.2 mPa·s; viscosity (363.15 K, 125000 kPa): 25.5 ± 2.7 mPa·s; viscosity (363.15 K, 150000 kPa): 30.5 ± 3.2 mPa·s"
CCCC[N+]1(C)CCCC1.O=S(=O)([N-]S(=O)(=O)C(F)(F)F)C(F)(F)F,46.5 ± 4.8 mPa·s,49.5 ± 5.1 mPa·s,55.9 ± 5.7 mPa·s,74.8 ± 7.7 mPa·s,98.8 ± 10 mPa·s,129.4 ± 14 mPa·s,168.4 ± 18 mPa·s,218 ± 24 mPa·s,18.2 ± 2 mPa·s,19.1 ± 2.1 mPa·s,21.1 ± 2.3 mPa·s,26.6 ± 2.9 mPa·s,33.6 ± 3.7 mPa·s,42.1 ± 4.7 mPa·s,52.8 ± 6 mPa·s,66.3 ± 7.6 mPa·s,12.2 ± 1.3 mPa·s,12.8 ± 1.3 mPa·s,14.1 ± 1.5 mPa·s,17.7 ± 1.8 mPa·s,"viscosity (363.15 K, 75000 kPa): 21.9 ± 2.3 mPa·s; viscosity (363.15 K, 100000 kPa): 26.7 ± 2.8 mPa·s; viscosity (363.15 K, 125000 kPa): 32.2 ± 3.4 mPa·s; viscosity (363.15 K, 150000 kPa): 38.7 ± 4.1 mPa·s"
CCOS(=O)(=O)[O-].CCn1cc[n+](C)c1 [1-ethyl-3-methylimidazolium ethyl sulfate],54.3 ± 5.6 mPa·s,56.4 ± 5.8 mPa·s,60.9 ± 6.3 mPa·s,73.6 ± 7.6 mPa·s,88.6 ± 9.2 mPa·s,106.6 ± 11 mPa·s,128.1 ± 14 mPa·s,153.8 ± 17 mPa·s,20.2 ± 2.2 mPa·s,20.9 ± 2.3 mPa·s,22.3 ± 2.4 mPa·s,26.1 ± 2.9 mPa·s,30.3 ± 3.4 mPa·s,35 ± 3.9 mPa·s,40.2 ± 4.6 mPa·s,46.1 ± 5.3 mPa·s,13.2 ± 1.4 mPa·s,13.6 ± 1.4 mPa·s,14.5 ± 1.5 mPa·s,16.8 ± 1.8 mPa·s,"viscosity (363.15 K, 75000 kPa): 19.2 ± 2 mPa·s; viscosity (363.15 K, 100000 kPa): 22 ± 2.3 mPa·s; viscosity (363.15 K, 125000 kPa): 25 ± 2.6 mPa·s; viscosity (363.15 K, 150000 kPa): 28.2 ± 3 mPa·s"
